We go through one substance from patent US5753623A, “Method of treatment for depression” (Connetics Corporation, priority 1995, dated 1998).

Series [1] deals with Male Lewis mice. Put plainly: Mouse forced swimming wheel model. The format is in vivo. The following applies: 50 μg/kg/day subcutaneous, two hours before the test, versus placebo control. The procedure: This is a modification of the forced swimming wheel test described by Kasahara, et al., Life Sci., 52(22):1741-1749 (1993).
Male Lewis mice are divided into control and treatment groups. Two hours before the test, the control and treatment groups, respectively, receive subcutaneous injections of placebo or 50 μg/kg/day of recombinant human relaxin (H2) formulated as described in allowed U.S. Ser. No. 08/050,745. The mice are individually placed in the swimming wheel and the number of turns of the wheel is recorded for each. Antidepressant activity is indicated by an increased number of turns in the treatment group.

The subject of series [2] is female subjects after childbirth. Put plainly: Clinical trial for treatment of postpartum depression (Example 6). The format is in vivo, human. The settings on record: osmotic pump 50 μg/kg/day subcutaneous from three days after childbirth, three months, versus placebo. The procedure: One hundred pregnant female subjects are monitored for relaxin serum concentration during the course of their pregnancy. The subjects are randomized and divided into treatment and control groups. Three days after childbirth, in the treatment group, relaxin is administered by subcutaneous placement of a relaxin-containing osmotic pump delivering 50 μg/kg/day of recombinant human relaxin (H2); in the control group, placebo is administered by subcutaneous placement of a placebo-containing osmotic pump. The subjects are required to maintain a diary documenting their mood (e.g., joy/euphoria/depression/anxiety) over a period of three months following placement of the drug/placebo. The same is documented, along with relaxin serum concentration, by weekly visits to the treating physician.

Series [3] has as its system patient with severe systemic scleroderma. Put plainly: Human antidepressant activity, missed doses and readministration (Example 4). The format is in vivo. On the procedure:
A patient diagnosed as having severe systemic scleroderma with systemic sclerosis, was undergoing compassionate use therapy with relaxin. They were being treated with 1.5 mg per day of recombinant human relaxin (H2) in a buffered citrate solution adjusted to pH 5.0, divided into six equal doses by subcutaneous injection to achieve a circulating concentration of about 1.0 ng/ml.

A short description of series [4]: Serum concentrations of relaxin in the ongoing clinical trials. The format is in vivo, human. On the procedure:
While human dosage levels for treating depression have yet to be optimized for relaxin, generally, a daily dose is from about […] of body weight per day, preferably about […] μg/kg, and most preferably about 12.0 to 100.0 μg/kg. Generally it is sought to obtain a serum concentration of relaxin approximating or greater than normal circulating levels in pregnancy, i.e., 1.0 ng/ml, such as 0.5 to 50 ng/ml, preferably 1.0 to 20 ng/ml. […] Thus, for administration to a 70 kg person, the dosage range would be about 7.0 μg to 3.5 mg per day, preferably about […] to 2.1 mg per day, and most preferably about […] per day. The amount of relaxin administered will, of course, be dependent on the subject and the severity of the affliction, the manner and schedule of administration and the judgment of the prescribing physician. One treatment regimen can employ a higher initial dosage level (e.g., 100 to 200 μg/kg/day) followed by decreasing dosages to achieve steady relaxin serum concentration of about 1.0 ng/ml. Another treatment regimen, particularly for postpartum depression, entails administration of an amount of relaxin sufficient to attain normal pregnancy levels of relaxin (about 1.0 ng/ml) followed by gradual decreasing dosages until relaxin serum levels are no longer detectable (e.g., less than about 20 pg/ml), optionally discontinuing treatment upon reaching that dosage level.

Series [5] relates to scleroderma patients. The experiment in a line: Monitoring of overall wellbeing in Phase I clinical trials in scleroderma patients. The format is in vivo, human. The text has this: Recombinant human relaxin (H2) in currently in Phase I human clinical trials in scleroderma patients. Scleroderma is a disease involving an imbalance in tissue reformation giving rise to the overproduction of collagen, and ultimately resulting in swelling and hardening of the skin (and affected organs).
Relaxin is currently the subject of Phase I clinical trials involving scleroderma patients. Scleroderma is a disease involving an imbalance in tissue reformation giving rise to the overproduction of collagen, and ultimately resulting in swelling and hardening of the skin (and affected organs). Part of the clinical testing of relaxin in scleroderma patients included the monitoring of overall wellbeing.

Series [6] in a line: Serum relaxin concentrations after single subcutaneous administration to a scleroderma patient. The format is in vivo, human. The settings on record: 10 μg/kg single subcutaneous injection. The procedure: FIG. 1 is a graph showing serum relaxin concentration (ng/ml) as measured against time after administration of a single subcutaneous dose of 10 μg/kg to a scleroderma patient.
Relaxin (10 μg/kg) was administered as a single subcutaneous injection to a scleroderma patient. Blood samples were obtained at timed intervals and measured for serum relaxin concentration (ng/ml). Peak serum concentration was attained at about 2 hours post dosing.

Series [7] relates to patients. Put plainly: Relaxin treatment regimen with gradually decreased dosage (Example 5). The format is in vivo, human. The following applies: about 6 μg/kg, then dosage gradually decreased to minimum dose or zero. The procedure:
Relaxin is administered in patient-dependent doses (about 6 μg/kg) sufficient to maintain serum concentrations of at least about 1.0 ng/ml (approximating relaxin concentration during pregnancy).

Series [8] concerns patient with severe systemic scleroderma. The experiment in a line: Human antidepressant activity, dose ranging phase (Example 3). The format is in vivo. The following applies: 0.5 mg bolus subcutaneous. The procedure:
A patient diagnosed as having severe systemic scleroderma with systemic sclerosis, was undergoing compassionate use therapy with relaxin. In a dose ranging phase of the therapy, recombinant human relaxin (H2) in a buffered citrate solution adjusted to Ph 5.0 was administered as a bolus subcutaneous injection of 0.5 mg.

For relaxin, the “number of turns of the swimming wheel” value in series [1] is recorded as “increased number of turns as compared to the control group”. For the same substance, the “signs of postpartum depression” value in series [2] was “fewer signs of postpartum depression than the subjects in the control group”. For the same substance, the “mood after several missed doses” value in series [3] (1.5 mg per day in six subcutaneous doses, doses inadvertently missed) is reported as “feelings similar to those they had previously experienced in the postpartum period”. Also, the “clearing of the "blues" after readministration” value in series [3] (1.5 mg per day in six subcutaneous doses, readministration after missed doses) is given as “cleared within hours of readministration”. The “episodes of depression during uninterrupted treatment” value in series [3] (following year, patient not withdrawn from treatment) was “no similar episodes of depression were experienced”. The serum concentration result in series [4] (dosage of about 6.0 μg/kg, printed spread ±0.3) was “about 1.8 ng/ml”; in series [4] (dosage of about 12.0 μg/kg, printed spread ±0.6), around 3.6 ng/mL; in series [4] (dosage of about 50 μg/kg, printed spread ±1.6), around 11.8 ng/mL. The “effect of discontinuation of therapy on mood” value in series [5] (discontinuation of therapy) is reported as “malaise described as best comparable to postpartum depression”. Moreover, the reversibility of malaise entry in series [5] (resumption of treatment) is on record as “reversible upon resumption of treatment”. In series [5] (treatment of scleroderma with relaxin), the mood during treatment result is listed as “mood elevations corresponded to peak dosing periods”. In addition, in series [6], the “time to peak serum concentration” value was “about 2 hours”. Besides, the “depression associated with withdrawal” value in series [7] is reported as “do not experience depression associated with precipitous withdrawal”. The patient-reported mood symptoms entry in series [8] (about seven hours post dosing) is reported as “significant anxiety/depression-like symptoms”. In addition, in series [8] (about seven hours post dosing, approximated), the relaxin serum concentration result is “below 1 ng/ml”. The patient-reported wellbeing entry in series [8] (about two hours post dosing (approximating peak serum concentration)) was “significant improvement in wellbeing”.
